Where no end group is shown, it is not given here.
What was measured:
hKOPr [1] = assay: Biased factor calculation from GTPγS and PRESTO-Tango data; design: species or system human; conditions: G-protein vs β-arrestin, DynA as reference; below 1 = β-arrestin bias
Excerpt: To perform biased factor analyses, we followed the step-by-step protocol described by [Nagi and Pineyro (2016)]. In short, curve fitting was used to calculate τ and Ka values for G-protein and β-arrestin pathway activation. Log(τ/Ka) ratios were subtracted by log(τ/Ka) of DynA as the reference to yield ΔLog(τ/Ka) values for each peptide. In a final step for each peptide, ΔLog (τ/Ka) values for G-protein pathway activation were subtracted from ΔLog(τ/Ka) values for β-arrestin pathway activation and vice versa to calculate ΔΔLog(τ/Ka). The biased factor is yielded by delogging ΔΔLog (τ/Ka).
To confidently identify a G-protein-biased peptide of interest, it is essential to keep in mind that the responses we collected through GTPγS and PRESTO-Tango assay are not solely determined by drug signaling properties but also by the way the cell and different assays “perceive” the generation of this response. These different “perceptions” of the pharmacological stimulus may themselves be responsible for an imbalance among signals from different pathways. To avoid this, and to be able to correctly estimate whether a peptide is indeed biased, we applied the method proposed by [Kenakin et al. (2012)], that is based on the operational method proposed by [Black and Leff (1983)]. This method takes into consideration receptor occupation by the agonist, communication of the pharmacological stimulus to the system, and the processing of the stimulus by the system that produces the response.

hMOPr [2] = molecular target: T1, hMOPr (Homo sapiens, UniProt P35372); format: biochemical; conditions: for EC50: read-out: hMOPr EC50, stimulation of [35S]GTPγS binding
T1 sequence (P35372 whole entry): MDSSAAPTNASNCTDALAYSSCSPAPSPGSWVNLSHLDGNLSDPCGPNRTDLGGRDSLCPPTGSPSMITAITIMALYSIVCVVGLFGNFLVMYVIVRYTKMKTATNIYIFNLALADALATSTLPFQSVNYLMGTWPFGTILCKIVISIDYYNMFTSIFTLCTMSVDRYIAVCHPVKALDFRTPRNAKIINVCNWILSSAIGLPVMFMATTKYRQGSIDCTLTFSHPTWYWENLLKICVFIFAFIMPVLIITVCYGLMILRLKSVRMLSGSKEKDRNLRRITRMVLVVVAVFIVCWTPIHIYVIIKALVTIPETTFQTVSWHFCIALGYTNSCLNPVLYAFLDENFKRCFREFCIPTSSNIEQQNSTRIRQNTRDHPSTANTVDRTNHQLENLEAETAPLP

[3] = tested on: p38 phosphorylation in hKOPr-CHO cells; assay: Western blot of phospho-p38 in hKOPr-CHO cells; format: cell-based, human; conditions: 1 µM, 10 min, ratio phosphorylated to non-phosphorylated protein
Method: hKOPr-CHO cells were seeded in 10-cm dishes and cultured until they reached 70%–80% confluency. Overnight serum starvation was initiated by replacing the culture medium with FBS-free medium [DMEM supplemented with 100 μg/mL GlutaMAX, 100 μg/mL penicillin/streptomycin, and 400 μg/mL geneticin (G418)]. […] The FBS-free medium was used as the control. After the treatment, cells were rinsed and harvested in cold PBS by scraping the dishes using a rubber policeman. Cell suspensions were centrifuged at 4°C for 7 min at 21,000 g, and the supernatants were removed. Pellets were then resuspended and washed in ice-cold PBS. […] Total proteins of the supernatant cell lysate were quantified by the biuret assay (Carl Roth GmbH, Karlsruhe, Germany). Antibody linearity ranges were determined for target proteins and the internal loading control, and the combined linear range was then used to determine how much sample should be loaded in order to produce a linear signal response. […] Immunoreactive bands were detected by incubating the membranes in a horseradish peroxidase-conjugated secondary antibody (1:5,000, Invitrogen), followed by incubation with enhanced chemiluminescence reagent (Merck Immobilon). […] To avoid errors introduced by stripping the membranes, total and phosphorylated proteins were analyzed from parallel gels. […]

hKOPr [4] = molecular target: T2, hKOPr (Homo sapiens, UniProt P41145); assay: biochemical; conditions: for Emax: read-out: Efficacy at hKOPr Emax
T2 sequence (P41145 whole entry): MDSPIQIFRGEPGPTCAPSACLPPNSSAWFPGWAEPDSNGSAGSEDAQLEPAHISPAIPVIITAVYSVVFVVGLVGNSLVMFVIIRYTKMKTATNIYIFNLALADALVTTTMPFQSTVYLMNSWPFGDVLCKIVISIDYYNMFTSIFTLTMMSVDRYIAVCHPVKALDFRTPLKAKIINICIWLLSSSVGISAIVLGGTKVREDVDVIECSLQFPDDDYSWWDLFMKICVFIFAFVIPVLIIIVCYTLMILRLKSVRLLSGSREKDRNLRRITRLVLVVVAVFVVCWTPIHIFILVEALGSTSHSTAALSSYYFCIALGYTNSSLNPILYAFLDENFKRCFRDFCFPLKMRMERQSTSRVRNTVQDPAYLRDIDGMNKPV

hMOPr [5] = molecular target: T1, hMOPr; assay: Competitive radio binding assay with [3H]-DAMGO on hMOPr-CHO cell membranes; conditions: read-out: Ki hMOPr; [3H]-DAMGO 1 nM, 60 min 25°C; mean ± SEM
hKOPr [6] = molecular target: T2, hKOPr; format: binding; conditions: for Ki: read-out: Ki hKOPr
hDOPr = hDOPr (Homo sapiens, UniProt P41143); assay: Competitive radio binding assay with [3H]-diprenorphine on hDOPr-CHO cell membranes; conditions: read-out: Ki hDOPr; [3H]-diprenorphine 1 nM, 60 min 25°C; mean ± SEM
Sequence of hDOPr (P41143 whole entry): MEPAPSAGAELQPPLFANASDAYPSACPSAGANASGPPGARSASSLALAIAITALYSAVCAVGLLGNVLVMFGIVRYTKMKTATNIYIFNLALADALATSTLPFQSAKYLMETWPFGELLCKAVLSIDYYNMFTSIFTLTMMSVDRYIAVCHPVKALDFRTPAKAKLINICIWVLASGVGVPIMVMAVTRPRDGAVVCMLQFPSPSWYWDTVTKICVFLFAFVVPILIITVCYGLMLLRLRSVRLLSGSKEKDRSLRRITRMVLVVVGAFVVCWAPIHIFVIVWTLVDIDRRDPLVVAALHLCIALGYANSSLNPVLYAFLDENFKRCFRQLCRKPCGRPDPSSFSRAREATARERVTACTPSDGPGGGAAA

hKOPr [7] = molecular target: T2, hKOPr; assay: cell-based; format: cell-based; conditions: for Emax: HEK293, read-out: β-Arrestin recruitment, efficacy at hKOPr Emax; for EC50: read-out: β-Arrestin recruitment, potency at hKOPr EC50
[8] = read-out: Potency at hKOPr EC50
[9] = read-out: hKOPr EC50, stimulation of [35S]GTPγS binding

Row | Sequence | biased factor at hKOPr (hKOPr [1]) | hMOPr % stim, stimulation of [35S]GTPγS binding (hMOPr [2]) | EC50 (hMOPr [2]) | p38 phosphorylation compared to DynB_WT [3] | Selectivity DOPr/KOPr (GTPγS) (hKOPr [4]) | Selectivity MOPr/KOPr (GTPγS) (hKOPr [4]) | hKOPr % stim, stimulation of [35S]GTPγS binding (hKOPr [4]) | preference for hKOPr over hDOPr (GTPγS) (hKOPr [4]) | Emax (hKOPr [4]) | EC50 (hKOPr [4]; [8]) | EC50 (hKOPr [4]; [9]) | Ki (hMOPr [5]) | Selectivity DOPr/KOPr (hKOPr [6]) | Selectivity MOPr/KOPr (hKOPr [6]) | Ki (hKOPr [6]) | Ki (hDOPr) | Emax (hKOPr [7]) | EC50 (hKOPr [7]) | also measured
1 | YGAFLRRAFKVVT [DynB_G3A/Q8A] | 0.6 ± 0.2 | 111 ± 7.7% | 297 ± 46.6 nM | significantly less phosphorylated | 84 | 20 | 88.6 ± 3.1% | 84 fold | 88.6 ± 3.1% | 14.6 ± 1.57 nM | 14.6 ± 1.6 nM | 86.1 ± 7 nM | 778 | 161 | 0.54 nM | 417 ± 52 nM | 88.7 ± 2.6% | 66.1 ± 1.6 nM | potency for hKOPr as compared to DynB (GTPγS) (hKOPr [4]): minor reduction in the potency; preference for hKOPr over hMOPr (GTPγS) (hKOPr [4]): 20 fold; stimulation of the receptor (β-arrestin recruitment) in comparison to DynB_WT (hKOPr [7]): lower stimulation
2 | YGGFSRRQFKVVT [DynB_L5S] | 0.7 ± 0.2 | 93.4 ± 5.6% | 107 ± 8.6 nM | significantly less phosphorylated | 17 | 6 | 99.1 ± 2.1% | 17 fold | 99.1 ± 2.1% | 17.7 ± 2.84 nM | 17.7 ± 2.8 nM | 18.6 ± 1.3 nM | 4,153 | 135 | 0.14 nM | 573 ± 22.6 nM | 95.1 ± 7.7% | 146 ± 26.5 nM | potency for β-arrestin recruitment compared to DynB_WT (hKOPr [7]): significantly lower potency

Source: PMC11557314 (Frontiers in Pharmacology, 2024)
